Test results: patent US7691572B2, “Method and kit for detecting resistance to antiviral drugs” (priority 1998, dated 2010)
Where two headings read alike, the source gives them in different places.

Assays:
[1] = test system: HIV-1 reference viruses; conditions: read-out: IC50 Culture based assay, cited from earlier work
[2] = test system: HIV-1 RT; assay type: biochemical
Description: (§1) Four groups of archived HIV-1 specimens with known genotypes were selected for assay validation. These included WT, MNR, MNR carrying unrelated resistance mutations, and non-MNR specimens carrying classical AZT resistance mutations (Schmit et al., “Multiple drug resistance to nucleoside analogues and nonnucleoside reverse transcriptase inhibitors in an efficiently replicating human immunodeficiency virus type 1 patient strain,” J. Infect. Dis. 174: 962-968 (1996); Winters et al., “A 6-base pair insert in the reverse transcriptase gene of human immunodeficiency virus type 1 confers resistance to multiple nucleoside inhibitors,” J. Clin. Invest. 102: 1769-1775 (1998); Adje et al., “High prevalence of genotypic and phenotypic HIV-1 drug-resistant strains among patients receiving antiretroviral therapy in Abidjan, Cote d'Ivoire,” J. Acquired Immune Deficiency Syndromes 26: 501-506 (2001); Weinstock et al., “Prevalence of mutations associated with reduced antiretroviral drug susceptibility among human immunodeficiency virus type 1 seroconverters in the United States, 1993-1998,” J. Infect. Dis. 182: 330-333 (2000)). Forty-four samples were selected which comprised 7 viral stocks and 37 plasma samples obtained from 34 HIV-1-infected persons.

[3] = target: HIV-1 RT (Human immunodeficiency virus type 1, UniProt P04585, F664L/S655G/V662I, form not given); assay type: biochemical; conditions: read-out: IC50 Amp-RT assay; patient-derived virus 15 (L6), S68G, V75I, F77L, K103N, F116Y, Q151M, M184V
Description: as §1

[4] = target: HIV-1 RT (Human immunodeficiency virus type 1, UniProt P04585, S655G/V662I, form not given); assay type: biochemical; conditions: read-out: IC50 Amp-RT assay; patient-derived virus 14 (L4), A62A/V, S68G, V75I, F77L, F116Y, Q151M
Description: as §1

[5] = target: T1, HIV-1 RT (Human immunodeficiency virus type 1 group M subtype B, UniProt P04585); assay type: biochemical; conditions: read-out: IC50 Amp-RT assay; patient-derived virus 12 (L1), None
Description: as §1

[6] = target: HIV-1 RT (Human immunodeficiency virus type 1, UniProt P04585, Q738M/S655G); assay type: biochemical; conditions: read-out: IC50 Amp-RT assay; patient-derived virus 13 (L2), S68G, Q151M
Description: as §1

[7] = test system: HIV-1; conditions: cited from earlier work
[8] = test system: patient-derived HIV-1; assay: culture-based plaque reduction assay (Schmit et al., 1996); assay type: cell-based
Description: The results obtained are correlated with the genotypes of the specimens.

[9] = test system: HIV-1 RT; assay: Amp-RT assay, AZT-TP and other NRTI-TPs, reference viruses; assay type: biochemical
[10] = target: HIV-1 RT (Human immunodeficiency virus type 1, UniProt P04585, F664L/F703Y/Q738M); assay: as above; assay type: biochemical
[11] = target: HIV-1 RT (Human immunodeficiency virus type 1, UniProt P04585, Q738M); assay: as above; assay type: biochemical
[12] = target: HIV-1 RT (Human immunodeficiency virus type 1, UniProt P04585, A649V/F664L/F703Y/Q738M/V662I); assay: as above; assay type: biochemical
[13] = target: T1, HIV-1 RT; assay: as above; assay type: biochemical; conditions: WT HIV-1SUM9
[14] = test system: HIV-1 RT; conditions: cited from earlier work
[15] = test system: HIV-1 reference viruses; assay: culture-based assay, inhibition of HIV-1-induced cytopathic effect; assay type: cell-based
Description: The IC50 values of AZT-TP for WT and MNR reference viruses determined by the Amp-RT assay were compared with previously reported IC50 values determined by a conventional RT assay and a culture-based phenotypic assay (Ueno et al., “Enzymatic characterization of human immunodeficiency virus type 1 reverse transcriptase resistant to multiple 2′,3′-dideoxynucleoside 5′-triphosphates,” J. Biol, Chem. 270: 23605-23611 (1995); Shirasaka et al., “Emergence of human immunodeficiency virus type 1 variants with resistance to multiple dideoxynucleosides in patients receiving therapy with dideoxynucleosides,” Proc. Nat. Acad. Sci. U.S.A. 92: 2398-2402 (1995)).

[16] = test system: patient-derived HIV-1; conditions: read-out: IC50 Culture based assay, cited from earlier work
[17] = test system: HIV-1 RT; assay type: biochemical; remark: listed apart in the source
[18] = test system: HIV-1; conditions: classical AZT resistance mutations T215Y/F, M41L, D67N, K70R, K219Q/E; cited from earlier work
[19] = HIV1SUM13 (A62V, V75I, F77L, F116Y, Q151M)

Cc1cn([C@H]2C[C@H](N=[N+]=[N-])[C@@H](CO)O2)c(=O)[nH]c1=O [AZT, zidovudine]
IC50 ([1]; HIV1SUM8 (Q151M)): 5 µM | IC50 ([1]; HIV1SUM9 (None)): 0.5 µM | IC50 ([1]; HIV1SUM12 (F77L, F116Y, Q151M)): > 160 µM | IC50 [1, 19]: > 160 µM | fold change from IC50 of WT HIV-1, Amp-RT assay ([2]; patient-derived virus 13 (L2)): (3.9) fold | fold change from IC50 of WT HIV-1, Amp-RT assay ([2]; patient-derived virus 14 (L4)): (23.5) fold | fold change from IC50 of WT HIV-1, Amp-RT assay ([2]; patient-derived virus 15 (L6)): (41.8) fold | IC50 [3]: 14.6 µM | IC50 [4]: 8.23 µM | IC50 [5]: 0.35 µM | IC50 [6]: 1.35 µM | reduced susceptibility to AZT ([7]; plasma sample HIV-1R598 (D67N, V106A, L214W, L214F, T215Y)): 100 fold | reduced susceptibility to AZT ([7]; specimen no. 40 (T215Y, T69S-EA insertions)): 100 fold | fold change from IC50 of WT HIV-1, Culture based assay ([8]; 13 (L2)): (1.5) fold | fold change from IC50 of WT HIV-1, Culture based assay ([8]; 14 (L4)): (633) fold | fold change from IC50 of WT HIV-1, Culture based assay ([8]; 15 (L6)): (3117) fold | fold resistance (IC50) as compared to the mean IC values of WT HIV-1 ([9]; MNR HIV-1SUM8 (Q151M)): (5) fold | fold resistance (IC50) as compared to the mean IC values of WT HIV-1 ([9]; MNR HIV-1SUM12 (F77L, F116Y, Q151M)): (22) fold | fold resistance (IC50) as compared to the mean IC values of WT HIV-1 ([9]; MNR HIV-1SUM13 (A62V, V75I, F77L, F116Y, Q151M)): (36) fold | IC50 [10]: 11 µM | IC50 [11]: 2.5 µM | IC50 [12]: 18 µM | IC50 [13]: 0.5 µM | IC50 ([14]; HIV1SUM8 (Q151M)): 0.19 µM | IC50 ([14]; HIV1SUM9 (None)): 0.023 µM | IC50 ([14]; HIV1SUM12 (F77L, F116Y, Q151M)): 0.88 µM | IC50 [14, 19]: 1.5 µM | fold change from IC50 of WT HIV-1, Culture based assay ([15]; HIV1SUM8): (10) fold | fold change from IC50 of WT HIV-1, Culture based assay ([15]; HIV1SUM12): (>320) fold | fold change from IC50 of WT HIV-1, Culture based assay ([15]; HIV1SUM13): (>320) fold | IC50 ([16]; 12 (L1), None): 0.006 µM | IC50 ([16]; 13 (L2), S68G, Q151M): 0.009 µM | IC50 ([16]; 14 (L4), A62A/V, S68G, V75I, F77L, F116Y, Q151M): 3.8 µM | IC50 ([16]; 15 (L6), S68G, V75I, F77L, K103N, F116Y, Q151M, M184V): 18.7 µM | fold change from IC50 of WT HIV-1, RT assay ([17]; HIV1SUM8 (Q151M)): (8.3) fold | fold change from IC50 of WT HIV-1, RT assay ([17]; HIV1SUM12): (38) fold | fold change from IC50 of WT HIV-1, RT assay ([17]; HIV1SUM13): (65) fold | resistance to AZT [18]: > 100 fold
